Earlier results in US20080181972A1, “Compositions and Methods for Maintaining, Strengthening, Improving, or Promoting Eye Health” (priority 2007, published 2008).

Tests used:
AGE from Amadori adducts = settings: in vitro and in vivo studies
[1] = test system: human endothelial cell cultures
intracellular GSH = settings: in vitro (cell culture)
[2] = test system: intracellular GSH in lung, liver and kidney cells; settings: in vivo, liver and kidney cells of mice injected daily with 4, 8, or 16 mg/kg for 11 days
[3] = in vivo
[4] = long-term feeding to rats, 1% in drinking water
[5] = short- and long-term studies
[6] = test system: bovine aortic endothelial cell- and human endothelial cell-mediated LDL oxidation; settings: bovine aortic and human endothelial cells
LDL = settings: conjugated diene, lipid peroxides and TBARS after cupric sulfate
[7] = phytoestrogenic isoflavones
H2O2 formation = settings: both in vitro and in vivo

Structure (SMILES): Cc1ncc(CO)c(CN)c1O [PM, pyridoxamine]
- inhibition of the formation of AGE from Amadori adducts (AGE from Amadori adducts): potent inhibitor

Structure (SMILES): O=C1O[C@H]([C@@H](O)CO)C(O)=C1O [vitamin C, Ascorbic acid]
- daily intake without any known adverse effects (consumed daily): ≥ 1,000 mg

Structure (SMILES): C/C(=C(\CCOP(=O)(O)O)SC(=O)c1ccccc1)N(C=O)Cc1cnc(C)nc1N [benfotiamine]
- AGE accumulation in the retina (retina of diabetic rats): preventing AGE accumulation
- AGE generation [1]: effective in reducing AGE generation

Structure (SMILES): O=C(O)CCCCC1CCSS1 (stereo not drawn) [ALA, Alpha-lipoic acid]
- increase of intracellular GSH levels (intracellular GSH): 30-70%
- increase of intracellular GSH levels [2]: 30-70%

Structure (SMILES): CC1=C(/C=C/C(C)=C/C=C/C(C)=C/C=C/C=C(C)/C=C/C=C(C)/C=C/C2=C(C)CCCC2(C)C)C(C)(C)CCC1 [beta-carotene, Beta-carotene]
- dosage level with no observed adverse effects (healthy, non-smokers): ≤ 25 mg per day
- adverse effects observed (individuals who receive 20 mg/day): increased risk of fatal coronary heart attacks in men with previous myocardial infarction and an increased risk of lung cancer among male smokers
- efficiency of conversion to vitamin A in the body [3]: approximately 50%

Structure (SMILES): CC(=O)Oc1c(C)c(C)c2c(c1C)CC[C@@](C)(CCC[C@H](C)CCC[C@H](C)CCCC(C)C)O2 (racemic) [DL-α-tocopheryl acetate]
- level at which no adverse effects have been observed (in vivo): ≤ 800 mg

Structure (SMILES): NC(=O)c1cccnc1 [niacinamide]
- carcinogenic effects [4]: No carcinogenic effects
- toxicity [5]: low toxicity

Structure (SMILES): Cc1ncc(C[n+]2csc(CCO)c2C)c(N)n1 [thiamine]
- AGE accumulation in the retina (retina of diabetic rats): preventing AGE accumulation
- AGE generation [1]: effective in reducing AGE generation

Structure (SMILES): CC1=C(/C=C/C(C)=C/C=C/C(C)=C/C=C/C=C(C)/C=C/C=C(C)/C=C/C2=C(C)C(=O)[C@@H](O)CC2(C)C)C(C)(C)C[C@H](O)C1=O [Astaxanthin]
- ill effects (daily dose of 19.25 mg over 29 days, healthy humans): no ill effects

Structure (SMILES): O=c1c(-c2ccc(O)cc2)coc2cc(O)cc(O)c12 [genistein]
- endothelial cell-mediated LDL oxidation [6]: inhibited
- order of ability to reduce LDL oxidizability (LDL): quercetine>morin>pelargonidin>genistein>naringin>apigenin
- order of reactivity in scavenging the radical in the aqueous phase [7]: genistein>daidzein=genistin approximately equal to biochanin A=daidzein>formononentin approximately equal to onionin
- tumor promoter-induced H2O2 formation (H2O2 formation): strongly inhibited
